# Laboratory results published in patent publication US11236055B2 (Venenum Biodesign, LLC, priority 2016, dated 2022).
# Tests used:
# mouse TGR5 receptor = target: T1, mouse TGR5 receptor (Mus musculus, UniProt Q80SS6); assay: Mouse TGR5 cAMP production assay (luminescent, DiscoveRx cAMP XS+); assay type: cell-based; details: HEK293-EBNA cells overexpressing mouse TGR5, luminescent cAMP XS+; coded A-D; read-out: Mouse TGR5 Lum. cAMP Activity (EC50)
# T1 construct: expressed in transfected cells; host or cells: HEK293-EBNA (293 c18, ATCC CRL10852), Hygromycin B selection
# T1 sequence (Q80SS6 1-329): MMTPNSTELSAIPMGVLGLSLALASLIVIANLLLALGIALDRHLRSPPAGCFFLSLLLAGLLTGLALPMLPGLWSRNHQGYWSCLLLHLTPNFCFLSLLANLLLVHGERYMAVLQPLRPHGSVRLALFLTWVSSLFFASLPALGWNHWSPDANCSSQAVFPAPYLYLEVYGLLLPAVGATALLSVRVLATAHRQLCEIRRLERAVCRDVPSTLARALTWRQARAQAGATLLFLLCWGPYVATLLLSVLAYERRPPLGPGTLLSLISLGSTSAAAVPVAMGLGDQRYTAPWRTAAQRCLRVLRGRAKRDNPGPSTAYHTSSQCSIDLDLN
# From the text: Mouse TGR5 cAMP Production Assay
# We evaluated compounds of the present invention for their ability to induce cAMP production in HEK-EBNA cells overexpressing the mouse TGR5 receptor. Human embryonic kidney cells (HEK293-EBNA) stably expressing mouse TGR5 receptor were established using the following procedure. Specifically, a commercially-obtained gene encoding mouse TGR5 (accession number BC116914) from Thermo Scientific (Waltham, Mass.) was cloned into an episomal expression vector. The resulting expression plasmid was then transfected into 293 c18 (ATCC® CRL10852™) cells, which express the Epstein-Barr virus nuclear antigen EBNA1 and can support the replication of episomal vectors. Selection for the plasmid was maintained with Hygromycin B. Cells were cultured and maintained in DMEM (Sigma; cat #6429) supplemented with 10% Fetal Bovine Serum, 1% penicillin/streptomycin, 2 mM L-alanine L-glutamine (GlutaMax), and 250 μg/mL Hygromycin.
# Two cAMP production assays were developed.
# 1. Luminescent cAMP Production Assay
# In this first cAMP production assay, the cAMP production was measured using DiscoveRx's cAMP XS+ kit following the manufacturer's recommended protocol.
# Briefly, HEK293-EBNA cells stably overexpressing mouse TGR5 were harvested using non-enzymatic cell dissociation buffer (Sigma-Aldrich, St. Louis, Mo.), spun down, then resuspended in serum-free DMEM with 500 μM IBMX at a density of 1.25×10^6 cells/mL. 500 μL of cAMP antibody solution was added to […] of cell suspension and incubated at room temperature for 20 min.
# Test compounds were serially diluted (half-log dilutions) in DMSO and then further diluted 1:50 in PBS, 10 mM HEPES buffer. 2 μL of serially diluted compound was added to a 384-well low volume plate (Greiner cat #784075) and centrifuged briefly. 2 μL of the cell/cAMP antibody mixture was then added to each compound-containing well and allowed to incubate at room temperature for one (1) hour. Following incubation, the XS+ kits' ED/Lysis/CL Substrate Working Solution was prepared following the manufacturer's recommended protocol and 4 μL was added to each well of the plate. The plate was then incubated for one (1) hour at room temperature. Following incubation, 4 μL of (Enzyme Acceptor) EA reagent was added to the plate and allowed to incubate overnight at room temperature. Luminescent signal was then detected using the Viewlux instrument (Perkin-Elmer, Waltham, Mass.).
# In Table 33, EC50 values for both human and mouse cells were determined according to the TGR5 cAMP assays described above.
# human TGR5 receptor = target: T2, human TGR5 receptor (Homo sapiens, UniProt Q8TDU6); assay: Human TGR5 cAMP production assay; assay type: cell-based; details: human TGR5, luminescent cAMP assay; coded A-D; read-out: Human TGR5 Lum. cAMP Activity (EC50)
# T2 construct: host or cells: CHO-K1 (hTGR5-CHO cells)
# T2 sequence (Q8TDU6 1-330): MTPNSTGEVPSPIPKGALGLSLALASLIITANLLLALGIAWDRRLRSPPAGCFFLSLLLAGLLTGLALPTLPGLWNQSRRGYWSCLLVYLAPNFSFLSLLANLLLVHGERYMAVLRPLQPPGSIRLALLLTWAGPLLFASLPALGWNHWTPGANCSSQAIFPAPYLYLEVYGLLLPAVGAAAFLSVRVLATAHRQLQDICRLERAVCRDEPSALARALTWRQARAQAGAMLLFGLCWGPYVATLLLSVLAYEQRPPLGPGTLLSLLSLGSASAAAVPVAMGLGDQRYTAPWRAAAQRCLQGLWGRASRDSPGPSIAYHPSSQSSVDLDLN
# Summary of the method: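 CHO-K1 cells stably expressing human TGR5, with IBMX and cAMP antibody, were exposed to half-log serially diluted compound for 1 h at room temperature. cAMP measured by enzyme-fragment complementation luminescence (XS+ kit) after overnight incubation; EC50 values reported.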
Structure (SMILES),EC50 (mouse TGR5 receptor),EC50 (human TGR5 receptor)
"CCC(NS(=O)(=O)c1cccc(C(F)(F)F)c1)c1cccc(-c2ccncc2C)c1 (racemic) [Compound 5AU, (+/−)N-(1-(3-(3-methylpyridin-4-yl)phenyl)propyl)-3-(trifluoromethyl)benzenesulfonamide]",100 to 999 nM,100 to 999 nM
"Cc1noc(C)c1-c1cccc(CNS(=O)(=O)c2cccc(C(F)(F)F)c2)c1 [Compound 1, N-(3-(3,5-dimethylisoxazol-4-yl)benzyl)-3-(trifluoromethyl)benzenesulfonamide]",1000 to 30000 nM,1000 to 30000 nM
Cc1noc(C)c1-c1cccc(CNS(=O)(=O)c2ccc(C(F)(F)F)cc2)c1 [Compound 1AA],> 30000 nM,1000 to 30000 nM
Cc1noc(C)c1-c1cccc(CNS(=O)(=O)c2ccc(Cl)cc2)c1 [Compound 1AB],> 30000 nM,1000 to 30000 nM
Cc1noc(C)c1-c1cccc(C(C)(C)NS(=O)(=O)c2cccc(C(F)(F)F)c2)c1 [Compound 1AC],1000 to 30000 nM,1000 to 30000 nM
CC(C)(NS(=O)(=O)c1cccc(C(F)(F)F)c1)c1cccc(-c2ccncc2)c1 [Compound 1AD],1000 to 30000 nM,< 100 nM
CC(C)(NS(=O)(=O)c1cccc(C(F)(F)F)c1)c1cccc(-c2ccncc2F)c1 [Compound 1AE],1000 to 30000 nM,< 100 nM
CC(C)(NS(=O)(=O)c1cccc(C(F)(F)F)c1)c1cccc(-c2ccncc2Cl)c1 [Compound 1AF],100 to 999 nM,100 to 999 nM
CC(C)(NS(=O)(=O)c1cccc(C(F)(F)F)c1)c1cccc(-c2ccnc(Cl)c2)c1 [Compound 1AG],1000 to 30000 nM,100 to 999 nM
CC(C)(NS(=O)(=O)c1cccc(C(F)(F)F)c1)c1cccc(-c2ccnc(C(F)(F)F)c2)c1 [Compound 1AH],> 30000 nM,1000 to 30000 nM
COc1cnccc1-c1cccc(C(C)(C)NS(=O)(=O)c2cccc(C(F)(F)F)c2)c1 [Compound 1AI],100 to 999 nM,< 100 nM
CC(C)(NS(=O)(=O)c1cccc(C(F)(F)F)c1)c1cccc(-c2ccnc3ccccc23)c1 [Compound 1AJ],1000 to 30000 nM,1000 to 30000 nM
Cc1cc(-c2cccc(C(C)(C)NS(=O)(=O)c3cccc(C(F)(F)F)c3)c2)ccn1 [Compound 1AK],1000 to 30000 nM,100 to 999 nM
CC(C)(NS(=O)(=O)c1cccc(C(F)(F)F)c1)c1cccc(-c2ccnc(N)c2)c1 [Compound 1AL],1000 to 30000 nM,100 to 999 nM
CC(C)(NS(=O)(=O)c1cccc(C(F)(F)F)c1)c1cccc(-c2ccncc2O)c1 [Compound 1AN],1000 to 30000 nM,100 to 999 nM
Cc1cncc(F)c1-c1cccc(C(C)(C)NS(=O)(=O)c2cccc(C(F)(F)F)c2)c1 [Compound 1AO],1000 to 30000 nM,1000 to 30000 nM
O=S(=O)(NCc1cccc(-c2ccncc2F)c1)c1cccc(C(F)(F)F)c1 [Compound 1AP],1000 to 30000 nM,100 to 999 nM
O=S(=O)(NCc1cccc(-c2ccncc2Cl)c1)c1cccc(C(F)(F)F)c1 [Compound 1AQ],1000 to 30000 nM,100 to 999 nM
